The test system of experiment [1] is Glutaminase (GLS). The experiment is described as follows: Western detection of Glutaminase (GLS) protein. The note with it: Western blot. Format: cell-based. The procedure: To explore this hypothesis, activation of glycolysis via hypoxia inducible factor (HIF), a known transcriptional activator of glycolysis, was tested. HIF1-α and HIF2-α stabilization was assessed in HeLa cells by carrying out Western blot detection using anti-HIF1-α antibody (Cell Signaling Cat. No. 3716) and anti-HIF2-α antibody (Novus Biologicals). Protein was extracted from cells pre-treated with either 0.1% DMSO, 50 μM meclizine or 100 μM deferoxamine (Sigma Cat. No. D9533). Western detection of Glutaminase (GLS) was carried out on protein extracts from 293 cells using anti-GLS antibodies (gift from Dr. Javier Marquez, University of […], Spain).
(In general: Immunoblotting shows a protein as a band on a membrane.)

Experiment [2] has as its system GLS expressing 293 cells. As to the kind of experiment: OCR in 293 cells with forced GLS expression. To be noted: 50 μM. Format: cell-based. The procedure:
FIG. 14B presents exemplary data showing OCR measurements on FACS sorted control (LacZ) or GLS expressing cells following DMSO or 50 μM meclizine addition at time 0 min (n=4).
Glutaminase full length cDNA (Open Biosystems, Accession #BCO38507) was amplified using proof-reading TAQ polymerase (Accuprime, Invitrogen) with primers which included attb1 and attb2 sites for subsequent subcloning into pDONR 221 vector (Invitrogen). Partial Kozak sequence was included in the 5′ primer and stop codon was eliminated in the 3′ primer. The sequences of forward (F) and reverse primers (R) are—5′-GGGGACAAGTTTGTACAAAAAAGCAGGCTCCACCATGATGCGGCTGCGAGGCTC-3′ (SEQ ID NO: 2); and 5′-GGGGACCACTTTGTACAAGAAAGCTGGGTCCAACAATCCATCAAGATTCT-3′ (SEQ ID NO: 3), respectively. Resulting PCR fragment was cloned into Gateway entry vector pDONR 221 (Invitrogen) with BP clonase using STBL2 E. coli competent cells (Invitrogen). Subsequently, it was subcloned into destination vector pcDNA6.2-EMGFP-DEST with LR clonase and was sequenced verified. The 293 cells were transfected with the pcDNA6.2-GLS-GFP and the control vector pcDNA6.2-LacZ-GFP using Fugene (Roche) reagent. GLS expression was confirmed by Western blot using anti-GLS antibody. FACS sorted transfected cells were subjected to meclizine treatment followed by OCR and ECAR measurements.

The subject of experiment [3] is HIF1-α and HIF2-α. The experiment is described as follows: HIF stabilization (Western blot, HIF reporter). Format: cell-based. The note with it: HeLa cells, 50 μM, 6 h. The procedure: FIGS. 10A-10B present exemplary data showing the effect of meclizine on HIF-1α stabilization. 10A, HIF-1α and HIF-2α detection by western blot analysis of protein extract from HeLa cells after 6-h treatment with 0.1% DMSO, 100 μM deferoxamine (DFO) or […]. 10B, a bar graph showing HIF reporter activity measured in transiently transfected HeLa cells following 6 hours treatment with DMSO, 100 μM DFO or 50 μM Mec. NTC refers to non-transfected control. Data is representative of 2 independent experiments done in triplicate. (*P<0.05; two sided t-test).
To explore this hypothesis, activation of glycolysis via hypoxia inducible factor (HIF), a known transcriptional activator of glycolysis, was tested. HIF1-α and HIF2-α stabilization was assessed in HeLa cells by carrying out Western blot detection using anti-HIF1-α antibody (Cell Signaling Cat. No. 3716) and anti-HIF2-α antibody (Novus Biologicals). Protein was extracted from cells pre-treated with either 0.1% DMSO, 50 μM meclizine or 100 μM deferoxamine (Sigma Cat. No. D9533). Western detection of Glutaminase (GLS) was carried out on protein extracts from 293 cells using anti-GLS antibodies (gift from Dr. Javier Marquez, University of Malaga, Spain).

Experiment [4] concerns C. elegans expressing 128Q huntingtin fragment in touch receptor neurons. Format: in vivo. As for the experimental part:
Meclizine was also tested in an animal model of Huntington's disease. Transgenic C. elegans touch receptor neurons express an N-terminal fragment of huntingtin (htt) comprising 128 glutamine repeats, as opposed to seventeen glutamine repeats in the wild type protein. These neurons show polyQ-dependent neuronal dysfunction resulting in defective posterior mechanosensation. Parker et al., Nat Genet 37:349 (2005) Animals co-expressing YFP and N-terminal htt fused to CFP in touch receptor neurons were used for drug testing. See, eg., Parker et al., Proc Natl Acad Sci USA 98:13318 (2001). Synchronized L1 larvae, obtained by hypochlorite extraction, were incubated with drugs in 96 wells plates in 50 μl M9 medium with OP-50 bacteria and […] streptomycin, at 20° C. during 3 days as previously described. Three independent assays were performed and a minimum of 100 worms were tested per dose.
Worms were treated with DMSO or 33 μM meclizine for 3 days. Animals were considered as touch responsive if they reacted after light touch (e.g., by initiating a backward movement). Out of 3 touches, 2 or 3 reactions were regarded as responsive, and 0 or 1 reaction was regarded as unresponsive. Htt aggregation and axonal morphology in PLM neurons were scored using light microscopy as previously described (Parker et al., Proc Natl Acad Sci USA 98:13318 (2001)). Htt aggregation was scored using CFP fluorescence, axonal dystrophy was quantified using YFP fluorescence to detect axonal swelling.
Protein quantity was normalized using an anti-actin antibody (MP Biochemicals 69100).

Results on one compound are retold here after patent US9399032B2, “Methods and compositions for treating degenerative and ischemic disorders” (The General Hospital Corporation, priority 2009, dated 2016).

SMILES strings stand for the structures. Structures can show the parent of a compound that is named as a salt.

As for `Cc1cccc(CN2CCN(C(c3ccccc3)c3ccc(Cl)cc3)CC2)c1` (racemic) [Meclizine, meclizine hydrochloride], the GLS protein level result in experiment [1] is “not reduced”. In addition, the “oxygen consumption with constitutive GLS expression” value in experiment [2] is “continued to suppress oxygen consumption”. The HIF stabilization result in experiment [3] is “No HIF stabilization”. Moreover, in experiment [4] (33.33 μM), the PolyQ protein aggregation result is given as “no effects” and the “transgenic protein expression (worms)” value is given as “no changes were observed”. In experiment [4] (33.33 μM, PLM neurons), the axonal swelling entry is “reduced”. Moreover, in experiment [4] (mutant PolyQ animals, 3 days), the “sensory response to tail poke” value is “improved the sensory response to tail poke in a dose dependent manner”. Moreover, the “concentration of optimal response” value in experiment [4] (touch response) came to 33.33 µM.
